One test concerns Aβ42 release. In words: Aβ release in cells stably expressing APPswe, Meso Scale Discovery electrochemiluminescence assay. In kind it is cell-based, Human. Particulars: HEK or SH-SY5Y cells stably expressing APPswe, 4-6 hours incubation with test compound. The procedure, abridged: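 HEK or SH-SY5Y cells stably expressing APPswe, plated 15-24 h, then exposed to compound (diluted ×200 into fresh medium) for 4-6 h at 37 °C. Secreted Aβ42 in medium quantified by Meso Scale Discovery electrochemiluminescence with specific antibodies; cytotoxicity checked by cellular ATP content.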
Turning to `Cc1nccn1-c1ccc(Nc2nc3c(c(C(C)c4ccccc4)n2)CN(C)CC3)cc1` (single isomer, unassigned) [Example 70, 6-Methyl-N-(4-(2-methyl-1H-imidazol-1-yl)phenyl)-4-(1-phenylethyl)-5,6,7,8-tetrahydropyrido[4,3-d]pyrimidin-2-amine], the pIC50 worked out at 6.2.

The test is the same for the next values; noted with them: Homo sapiens, SH-SY5Y, HEK or SH-SY5Y cells stably expressing APPswe, 4-6 hours incubation with test compound.
For the molecule `CC(=O)N1CCc2nc(Nc3ccc(-c4cnco4)cc3)nc(N3c4ccccc4C[C@@H]3CO)c2C1` [Example 37], the IC50 was 10 µM.
On the same count and under the same terms, in the case of `COc1cc(Nc2nc3c(c(C(C)n4nc(C)cc4C)n2)COCC3)ccc1-n1cnc(C)c1` (stereo not drawn) [Example 104, 4-(1-(3,5-Dimethyl-1H-pyrazol-1-yl)ethyl)-N-(3-methoxy-4-(4-methyl-1H-imidazol-1-yl)phenyl)-7,8-dihydro-5H-pyrano[4,3-d]pyrimidin-2-amine] it was 0.2 µM; in that of `CN1CCc2nc(Nc3ccc(-c4cnco4)cc3)nc(NC[C@H]3CCCO3)c2C1` [Example 84, (R)-6-Methyl-N2-(4-(oxazol-5-yl)phenyl)-N4-((tetrahydrofuran-2-yl)methyl)-5,6,7,8-tetrahydropyrido[4,3-d]pyrimidine-2,4-diamine], 0.158 µM.
Take `Cc1nccn1-c1ccc(Nc2nc3c(c(Cc4ccc(F)cc4)n2)CC(C(F)(F)F)CC3)cc1` (stereo not drawn) [Example 99, 4-(4-Fluorobenzyl)-N-(4-(2-methyl-1H-imidazol-1-yl)phenyl)-6-(trifluoromethyl)-5,6,7,8-tetrahydroquinazolin-2-amine]: the IC50 is 0.316 µM.
Turning to `c1ccc(COc2nc(Nc3ccc(-c4cnco4)cc3)nc3c2CNCC3)cc1` [Example 12, 4-(Benzyloxy)-N-(4-(oxazol-5-yl)phenyl)-5,6,7,8-tetrahydropyrido[4,3-d]pyrimidin-2-amine], the IC50 is 3.98 µM.
For `COc1cc(Nc2nc3c(c(Cc4ccccc4)n2)CN(C)CC3)ccc1-n1cnc(C)c1` [Example 68, 4-Benzyl-N-(3-methoxy-4-(4-methyl-1H-imidazol-1-yl)phenyl)-6-methyl-5,6,7,8-tetrahydropyrido[4,3-d]pyrimidin-2-amine], the IC50 was 0.02 µM.
On to `Cc1nccn1-c1ccc(Nc2nc3c(c(N(C)C4CCCCC4)n2)CN(C)CC3)cc1` [Example 11, N4-Cyclohexyl-N4,6-dimethyl-N2-(4-(2-methyl-1H-imidazol-1-yl)phenyl)-5,6,7,8-tetrahydropyrido[4,3-d]pyrimidine-2,4-diamine], for which the IC50 is 0.398 µM.
Still for that read-out and setting: the same measure for `OCCN1CCc2nc(Nc3ccc(-c4cnco4)cc3)nc(NCC3CCOCC3)c2C1` [Example 86, 2-(2-(4-(Oxazol-5-yl)phenylamino)-4-((tetrahydro-2H-pyran-4-yl)methylamino)-7,8-dihydropyrido[4,3-d]pyrimidin-6(5H)-yl)ethanol]: 0.501 µM.
On the same count and under the same terms, in the case of `Cc1nccn1-c1ccc(Nc2nc(CCc3cccc(F)c3)c3c(n2)CCN(CCO)C3)cc1` [Example 49, 2-(4-(3-Fluorophenethyl)-2-(4-(2-methyl-1H-imidazol-1-yl)phenylamino)-7,8-dihydropyrido[4,3-d]pyrimidin-6(5H)-yl)ethanol] it was 0.251 µM; in that of `Cc1nccn1-c1ccc(Nc2nc3c(c(CC4CCOCC4)n2)CSCC3)cc1` [Example 46, N-(4-(2-Methyl-1H-imidazol-1-yl)phenyl)-4-((tetrahydro-2H-pyran-4-yl)methyl)-7,8-dihydro-5H-thiopyrano[4,3-d]pyrimidin-2-amine], 1.58 µM; in that of `COc1cccc(Cc2nc(Nc3ccc(-n4ccnc4C)cc3)nc3c2CN(C)CC3)c1` [Example 53, 4-(3-Methoxybenzyl)-6-methyl-N-(4-(2-methyl-1H-imidazol-1-yl)phenyl)-5,6,7,8-tetrahydropyrido[4,3-d]pyrimidin-2-amine], 0.316 µM.
Same read-out and setting: the same measure for `CCOC(=O)N1CCc2nc(Nc3ccc(-c4cnco4)cc3)nc(N(CCO)c3ccccc3)c2C1` [Example 24, Ethyl 4-((2-hydroxyethyl)(phenyl)amino)-2-(4-(oxazol-5-yl)phenylamino)-7,8-dihydropyrido[4,3-d]pyrimidine-6(5H)-carboxylate]: 0.251 µM.
Regarding `Cc1nccn1-c1ccc(Nc2nc3c(c(Cc4ccccc4)n2)C[S+]([O-])CC3)cc1` (stereo not drawn) [Example 114, 4-Benzyl-N-[4-(2-methyl-1H-imidazol-1-yl)phenyl]-7,8-dihydro-5H-thiopyrano[4,3-d]pyrimidin-2-amine 6-oxide], the IC50 was 1.58 µM.
Still for that read-out and setting: the same measure for `CC(=O)N1CCc2nc(Nc3ccc(-c4cnco4)cc3)nc(NC[C@@H]3CCCO3)c2C1` [Example 27, (S)-1-(2-(4-(Oxazol-5-yl)phenylamino)-4-((tetrahydrofuran-2-yl)methylamino)-7,8-dihydropyrido[4,3-d]pyrimidin-6(5H)-yl)ethanone]: 0.316 µM.
On to `COc1cc(Nc2nc3c(c(CCN4CCCC4=O)n2)COCC3)ccc1-n1cnc(C)c1` [Example 110, 1-(2-(2-(3-Methoxy-4-(4-methyl-1H-imidazol-1-yl)phenylamino)-7,8-dihydro-5H-pyrano[4,3-d]pyrimidin-4-yl)ethyl)pyrrolidin-2-one], for which the IC50 was 2.51 µM.
Turning to `Cc1nccn1-c1ccc(Nc2nc3c(c(N(CCO)Cc4ccccc4)n2)CN(C)CC3)cc1` [Example 76, 2-(Benzyl(6-methyl-2-(4-(2-methyl-1H-imidazol-1-yl)phenylamino)-5,6,7,8-tetrahydropyrido[4,3-d]pyrimidin-4-yl)amino)ethanol], the IC50 was 0.501 µM.
On the same count and under the same terms, in the case of `O=C(C1CC1)N1CCc2nc(Nc3ccc(-c4cnco4)cc3)nc(N(CCO)c3ccccc3)c2C1` [Example 16, Cyclopropyl(4-((2-hydroxyethyl)(phenyl)amino)-2-(4-(oxazol-5-yl)phenylamino)-7,8-dihydropyrido[4,3-d]pyrimidin-6(5H)-yl)methanone] it was 0.631 µM; in that of `c1ccc(CNc2nc(Nc3ccc(-c4cnco4)cc3)nc3c2CNCC3)cc1` [Example 6, N4-Benzyl-N2-(4-(oxazol-5-yl)phenyl)-5,6,7,8-tetrahydropyrido[4,3-d]pyrimidine-2,4-diamine], 1.26 µM.
Same read-out and setting: the same measure for `COc1cccc(Cc2nc(Nc3ccc(-n4ccnc4C)cc3)nc3c2CN(CCO)CC3)c1` [Example 57, 2-(4-(3-Methoxybenzyl)-2-(4-(2-methyl-1H-imidazol-1-yl)phenylamino)-7,8-dihydropyrido[4,3-d]pyrimidin-6(5H)-yl)ethanol]: 0.398 µM.
Turning to `COc1cc(Nc2nc3c(c(Cc4ccccc4)n2)COCC3)ccc1-n1cnc(C)c1` [Example 43, 4-Benzyl-N-(3-methoxy-4-(4-methyl-1H-imidazol-1-yl)phenyl)-7,8-dihydro-5H-pyrano[4,3-d]pyrimidin-2-amine], the IC50 was 0.0631 µM.
As for `Cc1nccn1-c1ccc(N(C)c2nc3c(c(N4c5ccccc5C[C@H]4CO)n2)CN(C)CC3)cc1` [Example 72], the IC50 was 0.631 µM.
In the case of `CN1CCc2nc(Nc3ccc(-c4cnco4)cc3)nc(NC[C@@H]3CCCO3)c2C1` [Example 83, (S)-6-Methyl-N2-(4-(oxazol-5-yl)phenyl)-N4-((tetrahydrofuran-2-yl)methyl)-5,6,7,8-tetrahydropyrido[4,3-d]pyrimidine-2,4-diamine], the half-inhibitory concentration (IC50) is 0.158 µM.
Same read-out and setting: in the case of `CCN(CC1CCCO1)c1nc(Nc2ccc(-c3cnco3)cc2)nc2c1CN(CCO)CC2` (stereo not drawn) [Example 81, 2-(4-(Ethyl((tetrahydrofuran-2-yl)methyl)amino)-2-(4-(oxazol-5-yl)phenylamino)-7,8-dihydropyrido[4,3-d]pyrimidin-6(5H)-yl)ethanol] it was 0.251 µM.

What is called pIC50 is the negative decadic logarithm of the IC50, by convention in mol/L. The term IC50 denotes the midpoint of a concentration-inhibition curve.

The values are drawn from US8188101B2 (AstraZeneca AB, priority 2008, dated 2012).
